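Five compound concentrations were applied to cells in 96-well plates for 48 hours; endpoints were derived by simple linear interpolation of the resulting dose-response curve. Abbreviation: GI50, concentration required for 50% inhibition of growth.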 Calls of active or inactive are those of the source. No stated cut-off is given here; in the data, active = GI50 up to about 1.1 µM and inactive = higher.
Tests used:
Experiment in all cases: DTP human tumour cell line panel, 48 h
BT-549 = tested on: BT-549
COLO 205 = tested on: COLO 205
HCC 2998 = tested on: HCC 2998
HCT-15 = tested on: HCT-15
HL-60 = tested on: HL-60
HOP-62 = tested on: HOP-62
HOP-92 = tested on: HOP-92
Hs-578T = tested on: Hs-578T
K562 = tested on: K562
MCF7 = tested on: MCF7
NCI-H23 = tested on: NCI-H23
NCI-H460 = tested on: NCI-H460
NCI/ADR-RES = tested on: NCI/ADR-RES
OVCAR-4 = tested on: OVCAR-4
PC-3 = tested on: PC-3
SF-268 = tested on: SF-268
SK-MEL-28 = tested on: SK-MEL-28
SK-MEL-2 = tested on: SK-MEL-2
SN12C = tested on: SN12C
U-251 = tested on: U-251

| SMILES | GI50 (BT-549) | GI50 (COLO 205) | GI50 (HCC 2998) | GI50 (HCT-15) | GI50 (HL-60) | GI50 (HOP-62) | GI50 (HOP-92) | GI50 (Hs-578T) | GI50 (K562) | GI50 (MCF7) | GI50 (NCI-H23) | GI50 (NCI-H460) | GI50 (NCI/ADR-RES) | GI50 (OVCAR-4) | GI50 (PC-3) | GI50 (SF-268) | GI50 (SK-MEL-28) | GI50 (SK-MEL-2) | GI50 (SN12C) | GI50 (U-251) |
| --- | --- | --- | --- | --- | --- | --- | --- | --- | --- | --- | --- | --- | --- | --- | --- | --- | --- | --- | --- | --- |
| CCOC(=O)C(C(=O)OCC)=C1NC2(c3ccccc3Nc3ccc(C)cc32)C(C(=O)OC)S1 (stereo not given) | 43.6 µM (inactive) | 11.6 µM (inactive) | 15.9 µM (inactive) | 18.7 µM | 20 µM (inactive) | 80 µM (inactive) | 4.92 µM (inactive) | 10.3 µM (inactive) | 18.4 µM (inactive) | 14.8 µM (inactive) | 25.5 µM (inactive) | 12.1 µM (inactive) | 17.5 µM (inactive) | 21.9 µM (inactive) | 6.85 µM (inactive) | 12.3 µM (inactive) | > 100 µM (inactive) | 14.7 µM (inactive) | 4.11 µM (inactive) | 23.7 µM (inactive) |
| CC1=NN(c2ccc(S(=O)(=O)O)cc2)C2(C1)SCC(=O)N2c1nc2ccccc2s1 (stereo not given) | > 100 µM (inactive) | > 100 µM (inactive) | > 100 µM (inactive) | > 100 µM | 0.195 µM (active) | > 100 µM (inactive) | > 100 µM (inactive) | > 100 µM (inactive) | > 100 µM (inactive) | > 100 µM (inactive) | > 100 µM (inactive) | > 100 µM (inactive) | > 100 µM (inactive) | > 100 µM (inactive) | > 100 µM (inactive) | > 100 µM (inactive) | > 100 µM (inactive) | > 100 µM (inactive) | > 100 µM (inactive) | > 100 µM (inactive) |
| Cc1c(/N=N/c2ccc([N+](=O)[O-])cc2)nc2scc(-c3ccccc3)n12 | > 78.7 µM (inactive) | > 100 µM (inactive) | > 100 µM (inactive) | 31.6 µM | 13.7 µM (inactive) | > 66.5 µM (inactive) | > 100 µM (inactive) | > 78.7 µM (inactive) | 22 µM (inactive) | 49.4 µM (inactive) | 90.8 µM (inactive) | 71.9 µM (inactive) | 73.1 µM (inactive) | > 100 µM (inactive) | 68.5 µM (inactive) | > 82.4 µM (inactive) | > 100 µM (inactive) | > 100 µM (inactive) | > 100 µM (inactive) | > 100 µM (inactive) |
| CCCCCCCCCCCCCCCCCCNc1ccn(C2OC(COP(=O)(O)OCC(COP(=O)(O)OCC3OC(n4cc(C)c(=O)[nH]c4=O)CC3N=[N+]=[N-])OCCCCCCCCCCCCCCCCCC)C(O)C2O)c(=O)n1 (stereo not given) | 90.4 µM (inactive) | 54.5 µM (inactive) | 99.1 µM (inactive) | 34 µM | > 100 µM (inactive) | > 100 µM (inactive) | 20.3 µM (inactive) | > 100 µM (inactive) | > 100 µM (inactive) | 34.4 µM (inactive) | 77.4 µM (inactive) | 54.3 µM (inactive) | > 100 µM (inactive) | 70.5 µM (inactive) | 29.4 µM (inactive) | 50.6 µM (inactive) | > 100 µM (inactive) | > 100 µM (inactive) | > 100 µM (inactive) | 12.8 µM (inactive) |
| O=C1c2c(Br)sc(Br)c2C(=O)C1(O)O | 19.3 µM (inactive) | 23.4 µM (inactive) | > 100 µM (inactive) | 27.1 µM | 41 µM (inactive) | > 100 µM (inactive) | 17.9 µM (inactive) | > 100 µM (inactive) | 27.7 µM (inactive) | 44.5 µM (inactive) | 33.4 µM (inactive) | > 100 µM (inactive) | > 100 µM (inactive) | 18.3 µM (inactive) | 22.8 µM (inactive) | > 100 µM (inactive) | > 100 µM (inactive) | 29.8 µM (inactive) | 98.9 µM (inactive) | 39.7 µM (inactive) |
| O=C1CSC(/C(=C\c2ccc(Cl)cc2)c2nc3ccccc3[nH]2)=N1 | 19.2 µM (inactive) | 19.1 µM (inactive) | 3.43 µM (inactive) | 22.8 µM | 26.5 µM (inactive) | 1.94 µM (inactive) | 12.4 µM (inactive) | 18.7 µM (inactive) | 34.4 µM (inactive) | 14.6 µM (inactive) | 14.8 µM (inactive) | 13.3 µM (inactive) | 19.1 µM (inactive) | 16.1 µM (inactive) | 19.5 µM (inactive) | 5.08 µM (inactive) | 15.7 µM (inactive) | 17.9 µM (inactive) | 17.8 µM (inactive) | 12.3 µM (inactive) |
| CC1Cc2c(cc(N)nc2Br)NC1=O (stereo not given) | 92.9 µM (inactive) | > 100 µM (inactive) | > 100 µM (inactive) | > 100 µM | > 10 µM (inactive) | > 100 µM (inactive) | 45.9 µM (inactive) | > 100 µM (inactive) | 63.4 µM (inactive) | > 100 µM (inactive) | > 100 µM (inactive) | > 100 µM (inactive) | > 100 µM (inactive) | > 100 µM (inactive) | > 100 µM (inactive) | > 100 µM (inactive) | > 100 µM (inactive) | > 100 µM (inactive) | > 100 µM (inactive) | > 100 µM (inactive) |
| Cn1c(=O)cc(/N=N\c2ccc(Cl)c(Cl)c2)[nH]c1=O | 29 µM (inactive) | 22.2 µM (inactive) | 56.8 µM (inactive) | 19.6 µM | 20.8 µM (inactive) | > 100 µM (inactive) | 30 µM (inactive) | 33.4 µM (inactive) | 28.1 µM (inactive) | 26.7 µM (inactive) | 37.3 µM (inactive) | 29.9 µM (inactive) | 34.2 µM (inactive) | 27.7 µM (inactive) | 23.3 µM (inactive) | 20.1 µM (inactive) | 23.6 µM (inactive) | 14.6 µM (inactive) | 41.1 µM (inactive) | 23.3 µM (inactive) |
| CC1c2ccccc2Cn2cc3c(c21)C(=O)c1cccc(OP(=O)(O)OCc2ccccc2)c1C3=O (stereo not given) | > 100 µM (inactive) | > 100 µM (inactive) | > 100 µM (inactive) | > 100 µM | > 52.5 µM (inactive) | > 100 µM (inactive) | > 100 µM (inactive) | > 100 µM (inactive) | > 74.6 µM (inactive) | 71.9 µM (inactive) | > 100 µM (inactive) | > 100 µM (inactive) | > 100 µM (inactive) | > 100 µM (inactive) | > 100 µM (inactive) | > 100 µM (inactive) | > 100 µM (inactive) | > 100 µM (inactive) | > 100 µM (inactive) | > 100 µM (inactive) |
| CCOC(=O)Nc1cc2c(c(N)n1)N=C(c1ccc3ccccc3c1)CN2 | 1.75 µM (inactive) | 0.499 µM (active) | 0.215 µM (active) | 0.0189 µM | 0.0167 µM (active) | 0.0564 µM (active) | 0.275 µM (active) | 0.0302 µM (active) | < 0.01 µM (active) | 0.192 µM (active) | 0.325 µM (active) | 0.0918 µM (active) | 0.0335 µM (active) | 1.44 µM (inactive) | 0.0407 µM (active) | 1.92 µM (inactive) | 1.95 µM (inactive) | 0.373 µM (active) | 0.0711 µM (active) | 0.0339 µM (active) |

Source: ChEMBL document CHEMBL1201862, “PubChem BioAssay data set” (2004)
